Test system: P12-Ichikawa
Experiment: cell viability relative to DMSO control; higher = less cytotoxic
Settings: 48 h
Method in brief: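 Leukemia cells (NOMO1 or SEM, 500 cells/well; P12-Ichikawa, 1000 cells/well) were seeded in 5 μl in 1536-well plates after at least four passages of adaptation to each medium. They received library compounds in DMSO by pin dosing, 11 threefold points from 47 μM to 0.79 nM. Luminescence with CellTiter-Glo One was read after 48 h at 37°C. Viability is stated per plate relative to DMSO wells, with cell-free wells as background.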

[1] = HPLM + 10% dialyzed FBS, 0.000781 µM
[2] = HPLM + 10% dialyzed FBS, 0.00234 µM
[3] = HPLM + 10% dialyzed FBS, 0.00702 µM
[4] = HPLM + 10% dialyzed FBS, 0.0211 µM
[5] = HPLM + 10% dialyzed FBS, 0.0632 µM
[6] = HPLM + 10% dialyzed FBS, 0.19 µM
[7] = HPLM + 10% dialyzed FBS, 0.569 µM
[8] = HPLM + 10% dialyzed FBS, 1.71 µM
[9] = HPLM + 10% dialyzed FBS, 5.12 µM
[10] = HPLM + 10% dialyzed FBS, 15.4 µM
[11] = HPLM + 10% dialyzed FBS, 46.1 µM
[12] = RPMI 5 mM glucose + 10% FBS, 0.000781 µM
[13] = RPMI 5 mM glucose + 10% FBS, 0.00234 µM
[14] = RPMI 5 mM glucose + 10% FBS, 0.00702 µM
[15] = RPMI 5 mM glucose + 10% FBS, 0.0211 µM
[16] = RPMI 5 mM glucose + 10% FBS, 0.0632 µM
[17] = RPMI 5 mM glucose + 10% FBS, 0.19 µM
[18] = RPMI 5 mM glucose + 10% FBS, 0.569 µM
[19] = RPMI 5 mM glucose + 10% FBS, 1.71 µM
[20] = RPMI 5 mM glucose + 10% FBS, 5.12 µM
[21] = RPMI 5 mM glucose + 10% FBS, 15.4 µM
[22] = RPMI 5 mM glucose + 10% FBS, 46.1 µM
[23] = RPMI 5 mM glucose + 10% dialyzed FBS, 0.000781 µM
[24] = RPMI 5 mM glucose + 10% dialyzed FBS, 0.00234 µM
[25] = RPMI 5 mM glucose + 10% dialyzed FBS, 0.00702 µM
[26] = RPMI 5 mM glucose + 10% dialyzed FBS, 0.0211 µM
[27] = RPMI 5 mM glucose + 10% dialyzed FBS, 0.0632 µM
[28] = RPMI 5 mM glucose + 10% dialyzed FBS, 0.19 µM
[29] = RPMI 5 mM glucose + 10% dialyzed FBS, 0.569 µM
[30] = RPMI 5 mM glucose + 10% dialyzed FBS, 1.71 µM
[31] = RPMI 5 mM glucose + 10% dialyzed FBS, 5.12 µM
[32] = RPMI 5 mM glucose + 10% dialyzed FBS, 15.4 µM
[33] = RPMI 5 mM glucose + 10% dialyzed FBS, 46.1 µM

Row | Structure (SMILES) | cell viability [1] [%] | cell viability [2] [%] | cell viability [3] [%] | cell viability [4] [%] | cell viability [5] [%] | cell viability [6] [%] | cell viability [7] [%] | cell viability [8] [%] | cell viability [9] [%] | cell viability [10] [%] | cell viability [11] [%] | cell viability [12] [%] | cell viability [13] [%] | cell viability [14] [%] | cell viability [15] [%] | cell viability [16] [%] | cell viability [17] [%] | cell viability [18] [%] | cell viability [19] [%] | cell viability [20] [%] | cell viability [21] [%] | cell viability [22] [%] | cell viability [23] [%] | cell viability [24] [%] | cell viability [25] [%] | cell viability [26] [%] | cell viability [27] [%] | cell viability [28] [%] | cell viability [29] [%] | cell viability [30] [%] | cell viability [31] [%] | cell viability [32] [%] | cell viability [33] [%]
1 | COc1ccc(-c2nc3cc(C4=NNC(=O)CC4C)ccc3[nH]2)cc1 (stereo not drawn) | 104 | 105 | 109 | 113 | 107 | 114 | 108 | 114 | 105 | 106 | 98.7 | 103 | 110 | 110 | 111 | 115 | 105 | 108 | 105 | 113 | 111 | 117 | 88.3 | 98.5 | 104 | 103 | 108 | 93.2 | 102 | 104 | 109 | 110 | 84.1
2 | C[C@H]1CCC/C=C/C2C[C@H](O)C[C@H]2[C@H](O)/C=C/C(=O)O1 (stereo partly drawn) | 90.4 | 102 | 94.8 | 70.4 | 32.8 | 18.7 | 9.39 | 4.66 | 2.87 | 2.17 | 2.02 | 74 | 75.3 | 81.5 | 60.1 | 10.9 | 9.73 | 6.57 | 4.48 | 1.69 | 1.14 | 1.83 | 104 | 81.9 | 86.1 | 62.7 | 12.7 | 12.8 | 6.09 | 4.16 | 3.23 | 2.71 | 1.83
3 | CC(C)c1ccc2oc3nc(N)c(C(=O)O)cc3c(=O)c2c1 | 120 | 119 | 119 | 124 | 130 | 132 | 128 | 131 | 125 | 129 | 118 | – | – | – | – | – | – | – | – | – | – | – | – | – | – | – | – | – | – | – | – | – | –
4 | CNC(=O)c1cc(Oc2ccc(NC(=O)Nc3cc(C(C)(C)C)nn3-c3ccc4ncccc4c3)c(F)c2)ccn1 | 111 | 120 | 124 | 128 | 139 | 134 | 132 | 131 | 134 | 139 | 125 | – | – | – | – | – | – | – | – | – | – | – | – | – | – | – | – | – | – | – | – | – | –
5 | NC/1=N/C(=O)N(/C=C1)[C@H]2CC[C@@H](CO)O2 | 85 | 95.4 | 93.5 | 101 | 95.9 | 102 | 96.1 | 106 | 95.5 | 104 | 37.6 | 88.3 | 87.6 | 88.6 | 94 | 102 | 91.1 | 99.6 | 92.2 | 94.3 | 90.9 | 41.8 | 59.6 | 87.9 | 88.1 | 90.3 | 85.1 | 90.4 | 96.6 | 93.9 | 98.2 | 90.9 | 30
6 | O=P(O)(O)C(O)(Cc1cccnc1)P(=O)(O)[O][Na] (stereo not drawn) | 88.6 | 81.8 | 99.2 | 11.3 | 95.5 | 94.2 | 105 | 100 | 105 | 105 | 110 | 87.4 | 98.6 | 98.9 | 16.4 | 94.5 | 98.3 | 100 | 107 | 108 | 118 | 112 | 85.3 | 91.3 | 91.2 | 17.4 | 97.7 | 100 | 95.1 | 103 | 100 | 104 | 104
7 | CC1=C(C)C2=C(S1)[N]3C(=NN=C3[C@H](CC(=O)OC(C)(C)C)/N=C2/C4=CC=C(Cl)C=C4)C | 98.4 | 98.2 | 97.1 | 100 | 92.7 | 79.5 | 39.4 | 57.7 | 35.1 | 15.4 | 6.39 | 97.6 | 90.6 | 91.5 | 97.6 | 85.8 | 81.1 | 43 | 52.4 | 37.1 | 22.4 | 13.6 | 92.2 | 92.2 | 87.8 | 95 | 90.6 | 78.9 | 39.9 | 50.4 | 40.1 | 17.3 | 7.9
8 | COc1cc(N2CCC(N3CCN(C)CC3)CC2)ccc1Nc1ncnc(Nc2ccccc2[S+](=O)([O-])C(C)C)n1 | 113 | 117 | 120 | 125 | 97.9 | 128 | 122 | 117 | 115 | 90.1 | 28.4 | 97.4 | 90.7 | 100 | 110 | 74.5 | 112 | 106 | 103 | 103 | 91.2 | 44.9 | 112 | 97 | 118 | 119 | 84 | 125 | 120 | 119 | 114 | 83.4 | 47.3
9 | O=C(Oc1ccc([N+](=O)[O-])cc1)N1CCN(Cc2cccc(Oc3ccccc3)c2)CC1 | 96.8 | 101 | 106 | 116 | 113 | 112 | 114 | 111 | 113 | 102 | 104 | 105 | 98 | 112 | 114 | 111 | 112 | 122 | 118 | 102 | 102 | 107 | 101 | 92.2 | 100 | 101 | 105 | 101 | 105 | 114 | 103 | 109 | 108
10 | CCC(=O)O[C@@]1([C@H](C)C[C@H]2[C@@H]3C[C@H](F)\C4=C\C(=O)\C=C/[C@]4(C)[C@@]3(F)[C@@H](O)C[C@]12C)C(=O)SCF | 101 | 112 | 88 | 75.6 | 69.2 | 64.8 | 70.6 | 71.5 | 65.9 | 69.8 | 66.2 | 120 | 119 | 86.3 | 76.5 | 74.7 | 68.8 | 68.2 | 58.9 | 59.2 | 55.1 | 59.9 | 95.9 | 100 | 71.3 | 55.5 | 54.4 | 55.1 | 53.6 | 49.6 | 51.1 | 48.6 | 46.7
11 | CN(C)[C@H]\1[C@@H]2[C@@H](O)[C@@H]\3C(=C)C4=C(C(=CC=C4)O)C(=O)C3=C(\O)[C@@]2(O)C(=O)\C(=C1O)C(N)=O | – | – | – | – | – | – | – | – | – | – | – | 115 | 120 | 124 | 126 | 115 | 128 | 120 | 125 | 122 | 111 | 99.1 | 126 | 122 | 119 | 123 | 129 | 128 | 118 | 117 | 125 | 119 | 107
12 | c1cc(OCCN2CCCCC2)cc(-c2n[nH]c3ccc(-c4nc[nH]n4)cc23)c1 | 109 | 114 | 110 | 116 | 117 | 118 | 121 | 116 | 122 | 123 | 124 | 112 | 111 | 118 | 116 | 123 | 114 | 114 | 132 | 128 | 128 | 111 | 99.4 | 111 | 114 | 19.2 | 117 | 116 | 121 | 115 | 108 | 123 | 116
13 | N/C(=N\C(=O)c1nc(Cl)c(N)nc1N)NCc1ccccc1 | 101 | 106 | 105 | 103 | 108 | 105 | 108 | 108 | 101 | 98.7 | 70.9 | 84.9 | 96.9 | 83.3 | 92.1 | 99 | 103 | 106 | 95.1 | 107 | 96.5 | 58.4 | 82.5 | 94.1 | 94.1 | 88.2 | 94.4 | 101 | 103 | 106 | 98.2 | 76.1 | 51.4
14 | O=C1[O][Pt]2([NH]C3CCCCC3[NH]2)[O]C1=O (stereo not drawn) | 19.4 | 112 | 115 | 111 | 118 | 113 | 118 | 114 | 62.4 | 2.95 | 3.39 | 106 | 109 | 106 | 118 | 115 | 123 | 128 | 117 | 70 | 3.56 | 2.67 | 111 | 115 | 121 | 119 | 119 | 113 | 114 | 113 | 79 | 7.33 | 2.85
15 | C=C1C[C@@]2(O)O[C@@]3(C[C@H]2C(C)C)[C@@H](C)CC[C@@H]13 | 110 | 119 | 112 | 129 | 117 | 123 | 122 | 112 | 117 | 125 | 118 | 113 | 127 | 114 | 126 | 129 | 134 | 119 | 123 | 122 | 128 | 132 | 112 | 109 | 116 | 117 | 122 | 135 | 113 | 125 | 121 | 127 | 128
16 | CC1=C(/C=C/C(C)=C/C=C/C(C)=C/C(=O)Nc2ccc(O)cc2)C(C)(C)CCC1 | 85.1 | 83.4 | 85.5 | 96.1 | 90.8 | 91.8 | 93.8 | 68.5 | 23.7 | 8.54 | 3.66 | 82 | 88.8 | 83 | 91.8 | 86.3 | 81.9 | 87 | 57.9 | 28.5 | 7.98 | 1.15 | 83.3 | 85.9 | 84 | 84.8 | 83.4 | 81.5 | 83.3 | 23.8 | 6.39 | 4.24 | 1.74

Source: the supplement of paper PMC11451515
